In patent publication US9540359B2, “Dihydrooxazine or oxazepine derivatives having BACE1 inhibitory activity” (Shionogi & Co., Ltd., priority 2012, dated 2017):

Tested on: β-Amyloid (Aβ) production in neuroblastoma SH-SY5Y cells (SH/APPwt)
Assay: Measurement of β-amyloid (Aβ) production inhibitory effect in cell
Type: cell-based
Settings: Homo sapiens, amount needed to inhibit Aβ production by 50%, Amyloid β1-40 in culture supernatant, 24 hours
Protocol: Neuroblastoma SH-SY5Y cells (SH/APPwt) with human wild-type β-APP excessively expressed therein were prepared at 8×10^5 cells/mL, and 150 μl portions thereof were inoculated into each well of a 96-well culture plate (Falcon). The cells were cultured for 2 hours at 37° C. in a 5% gaseous carbon dioxide incubator. Then, a solution which have been preliminarily prepared by adding and suspending the compound of the present invention (DMSO (dimethyl sulfoxide) solution) so as to be 2 μl/50 μl medium was added to the cell sap. Namely, the final DMSO concentration was 1%, and the amount of the cell culture was 200 μl. After the incubation was performed for 24 hours from the addition of the test compound, 100 μl of the culture supernatant was collected from each fraction. The amount of the Aβ in each fraction was measured. The Aβ amount was measured as follows. 10 μl of a homogeneous time resolved fluorescence (HTRF) measurement reagent (Amyloid β1-40 peptide; CIS bio international) and 10 μl of the culture supernatant were put into a 384-well half area microplate (black microplate, Costar) and mixed with each other, and then left standing overnight at 4° C. while the light was shielded. Then, the fluorescence intensity (excitation wavelength: 337 nm, measurement wavelength: 620 nm and 665 nm) was measured with a micro plate reader (Artemis K-101; FURUNO […]). […]

IC50 [nM] | SMILES
509 | N#Cc1ccc(C(=O)Nc2ccc(F)c([C@]3(C(F)(F)F)CCOC(N)=N3)c2)nc1 [Compound I-38]

Target: Recombinant human BACE1 (Homo sapiens (Human), UniProt P56817)
Assay: Assay of BACE1 inhibiting activity (HTRF, substrate peptide cleavage)
Type: biochemical
Settings: 50% inhibitory concentration against enzymatic activity; 30° C., 3.5 hours, pH 5.0; read-out: IC50 value
Protocol: 48.5 μL of substrate peptide solution (Biotin-[…]-Eu: X=ε-amino-n-capronic acid, Eu=Europium cryptate) was added to each well of 96-hole half-area plate (a black plate: Costar), and after addition of 0.5 μl of the compound of the present invention (DMSO solution) and 1 μl of Recombinant human BACE1 (R&D Systems), the reaction mixture was incubated at 30° C. for 3.5 hours. […] The final concentrations of the substrate peptide and Recombinant human BACE1 were adjusted to 18 nmol/L and 7.4 nmol/L, respectively, and the reaction was performed in sodium acetate buffer (50 mmol/L sodium acetate, pH 5.0, 0.008% Triton X-100). After the incubation for reaction, 50 μl of 8.0 μg/ml Streptavidin-XL665 (CIS bio international) dissolved in phosphate buffer (150 mmol/L K2HPO4-KH2PO4, pH 7.0, 0.008% Triton X-100, 0.8 mol/L KF) was added to each well and left stand at 30° C. for 45 minutes. After then, fluorescence intensity was measured (excitation wavelength: 320 nm, measuring wavelength: 620 nm and 665 nm) using Wallac 1420 multilabel counter (Perkin Elmer life sciences). Enzymatic activity was determined from counting ratio of each wavelength (10,000× Count 665/Count 620) and 50% inhibitory concentration against the enzymatic activity (IC50) was calculated.

Sequence of Recombinant human BACE1 (P56817 46-501): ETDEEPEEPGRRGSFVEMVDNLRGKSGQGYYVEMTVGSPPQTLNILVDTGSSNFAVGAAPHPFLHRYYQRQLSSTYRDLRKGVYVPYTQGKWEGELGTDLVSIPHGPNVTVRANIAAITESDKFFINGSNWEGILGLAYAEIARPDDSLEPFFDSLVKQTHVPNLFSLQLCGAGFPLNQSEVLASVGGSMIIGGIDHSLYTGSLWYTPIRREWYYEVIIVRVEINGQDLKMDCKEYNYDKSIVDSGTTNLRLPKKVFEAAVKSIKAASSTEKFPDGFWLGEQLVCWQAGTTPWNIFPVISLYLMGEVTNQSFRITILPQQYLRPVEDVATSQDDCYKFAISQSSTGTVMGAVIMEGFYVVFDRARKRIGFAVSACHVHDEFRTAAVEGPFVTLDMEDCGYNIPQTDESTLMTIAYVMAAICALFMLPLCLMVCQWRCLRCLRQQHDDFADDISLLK

IC50 [nM] | SMILES
96.8 | C#C[C@@]1(c2cc(NC(=O)c3ccc(C#N)cn3)ccc2F)CCOC(N)=N1 [Compound I-14]
65.4 | C#C[C@]1(c2cc(NC(=O)c3ccc(C#N)cn3)ccc2F)N=C(N)O[C@@H]2C[C@@H]21 [Compound I-21]
25 | C[C@@]1(c2cc(NC(=O)c3ccc(C#N)cn3)ccc2F)CC2(COC2)OC(N)=N1 [Compound I-56]
113 | C[C@H]1OC(N)=N[C@](CF)(c2cc(NC(=O)c3ccc(C#N)cn3)ccc2F)[C@H]1CF [Compound I-100]
94.2 | CC1(C)C[C@@](C)(c2cc(NC(=O)c3ccc(C#N)cn3)ccc2F)N=C(N)O1 [Compound I-1]
13.6 | C#C[C@]1(c2cc(NC(=O)c3cnc(OCF)cn3)ccc2F)N=C(N)O[C@@H]2COC[C@@H]21 [Compound I-72]
153 | C[C@@]1(c2cc(NC(=O)c3ccc(C#N)cn3)ccc2F)CCCOC(N)=N1 [Compound I-13]
32.9 | C[C@]1(c2cc(NC(=O)c3coc(C(F)F)n3)ccc2F)N=C(N)O[C@H](CF)[C@@H]1F [Compound I-86]
77.3 | CC12OC(N)=N[C@](CF)(c3cc(NC(=O)c4ccc(C#N)cn4)ccc3F)C1O2 (some centres unmarked) [Compound I-2]
20.7 | C[C@]1(c2cc(NC(=O)c3ccc(C#N)cn3)ccc2F)N=C(N)OC2(COC2)[C@@H]1F [Compound I-95]
90.2 | Cc1cc(C#N)cnc1C(=O)Nc1ccc(F)c([C@]2(C(F)F)CCOC(N)=N2)c1 [Compound I-4]

Same assay, conditions: bound stated for a list of compounds; 30° C., 3.5 hours, pH 5.0; read-out: IC50 values

IC50 [nM] | SMILES
≤ 1000 | CO[C@H]1[C@@H](C(F)F)OC(N)=N[C@]1(C)c1cc(NC(=O)c2ccc(C#N)cn2)ccc1F [Compound I-116]
≤ 1000 | CO[C@H]1[C@@H](C(F)F)OC(N)=N[C@]1(C)c1cc(NC(=O)c2cnc(OCF)cn2)ccc1F [Compound I-118]
≤ 1000 | NC1=N[C@@]2(c3cc(NC(=O)c4cnc(OCF)cn4)ccc3F)CCO[C@H]2[C@@H](CF)O1 [Compound I-111]
≤ 1000 | N#Cc1ccc(C(=O)Nc2ccc(F)c([C@]34CCO[C@H]3COC(N)=N4)c2)nc1 [Compound I-108]
≤ 1000 | CO[C@H]1[C@@H](C(F)F)OC(N)=N[C@]1(C)c1cc(NC(=O)c2ccc(F)cn2)ccc1F [Compound I-119]
≤ 1000 | C#C[C@]1(c2cc(NC(=O)c3coc(C(F)F)n3)ccc2F)N=C(N)O[C@@H]2COC[C@@H]21 [Compound I-73]
≤ 1000 | N#Cc1ccc(C(=O)Nc2ccc(F)c([C@]34CCO[C@H]3[C@@H](CF)OC(N)=N4)c2)nc1 [Compound I-110]
≤ 1000 | Cc1cc(C#N)cnc1C(=O)Nc1ccc(F)c([C@@]2(C)N=C(N)O[C@H](CF)[C@@H]2F)c1 [Compound I-26]
≤ 1000 | COC[C@@H]1C[C@@](CF)(c2cc(NC(=O)c3ccc(C#N)cn3)ccc2F)N=C(N)O1 [Compound I-37]
≤ 1000 | C[C@]1(c2cc(NC(=O)c3coc(CF)n3)ccc2F)N=C(N)O[C@H](CF)[C@@H]1F [Compound I-85]
≤ 1000 | NC1=N[C@@](c2cc(NC(=O)c3cnc(OCF)cn3)ccc2F)(C(F)F)CCCO1 [Compound I-47]
